“Also recorded” adds a separate entry of the source.
Legend:
[1] = system: ob/ob mice; assay: Physiological measurements during leptin treatment of ob/ob mice; assay type: in vivo, mouse
Protocol: (§1) Having witnessed the behavior of individual islets in response to food over-consumption and insulin resistance, we next questioned if this growth could be refrained or even reversed by treating the ob/ob mice with leptin. Mice were injected intraperitoneally every day between 3 and 4 months of age. The physiological effects of this treatment were monitored regularly using different parameters.
Leptin treatment was performed by daily intraperitoneal injections of 1.5 μg/g body weight of recombinant human leptin (Amylin Pharmaceuticals), and sham treatment was performed by intraperitoneal injection of water instead of leptin.
(§2) Body weight and blood glucose levels were measured in a minimum of 7 mice. Glucose concentrations were obtained using Accu-Chek™ Aviva monitoring system (Roche). Glucose tolerance tests were performed by intraperitoneal injection of 2 mg glucose per gram body weight in mice fasted for 16 hours (n≥5). Plasma insulin concentrations from a minimum of 3 mice per condition were measured using mouse insulin ELISA plates (Mercodia). Leptin treatment was performed by daily intraperitoneal injections of 1.5 μg/g body weight of recombinant human leptin (Amylin Pharmaceuticals), and sham treatment was performed by intraperitoneal injection of water instead of leptin.

[2] = system: ob/ob mice; assay: Intraperitoneal glucose tolerance test after leptin treatment; assay type: in vivo, mouse
Protocol: as §1, §2

[3] = system: islet grafts in the anterior chamber of the eye of ob/ob mice; assay: Longitudinal in vivo confocal imaging of intraocular islet grafts under leptin treatment; parameters: species or system mouse
Excerpt: (§3) Islet grafts in mice were imaged in vivo at specific time points after transplantation. We used an upright laser scanning confocal microscope based on TCS-SP2-AOBS (Leica) with a long-distance water-dipping objective (Leica HXC-APO 10×/0.30NA), and a custom-built stereotaxic head holder allowing to position the mouse eye containing the engrafted islets towards the objective. Viscotears (Novartis) was used as immersion liquid between the eye and the objective, and isoflurane was used to anesthetize the mice during in vivo imaging. Imaging of islet morphology was done by laser illumination at 633 nm, and collection of backscattered light at the same wavelength.
Islets were isolated from female donor mice and transplanted into the anterior chamber of the eye of male recipients, using a previously described technique (2). We anesthetized mice using isoflurane (Baxter), and approximately 10-20 islets were transplanted into the anterior chamber of the mouse eye. Islets used for transplantation were selected to be of similar size for each experiment, independent of the mouse genotype. The mice were injected subcutaneously with Temgesic™ (Schering-Plough) for postoperative analgesia.
as §3, with “transplantation as previously described (2).” for “transplantation.”, “Viscotears™” for “Viscotears”, “wavelength. For visualization of blood vessels we injected 100 μl of a solution containing 2.5 mg/ml of 500 kDa FITC-labeled dextran (Invitrogen) into the tail vein, and imaged fluorescence using 496 nm excitation wavelength. Scanning speed and laser intensities were adjusted to avoid any cellular damage to the mouse eye or islet graft.” for “wavelength.”
AutoQuant X2 (Media Cybernetics) was used for blind deconvolution of all in vivo confocal images before image analysis. Islet volume was analyzed based on the backscatter signal channel, using Matlab™ and the Image Processing Toolbox (Mathworks). The islet “equatorial volume”, i.e. the volume from the top of the islet down to the calculated equator, was used to represent the volume and calculate islet growth. We analyzed a minimum of 3 islet grafts per animal to determine islet growth, with a minimum of 3 mice per category. Individual vessel segments were identified at different imaging time points and their diameter measured using Volocity™ (Perkin Elmer). We established image analysis protocols in Volocity™ for automated analysis of histological sections. The average beta cell section area was obtained by dividing the insulin-stained area by the total number of DAPI-stained nuclei enclosed in this area (minimum of 1000 cells per tissue). Beta cell proliferation rate was obtained by counting Ki67-positive nuclei and dividing by the total number of DAPI-stained nuclei in insulin-positive cells (minimum of 10000 cells per transplanted eye or pancreas). Volocity™ was used for image display and Photoshop CS5 (Adobe) for image assembly.

[4] = system: beta cells of ob/ob mouse islets; assay: Immunohistochemistry of transplanted eye and pancreas sections after leptin treatment; assay type: in vivo; conditions: for proliferation of beta cells (insulin and Ki67 staining): end of leptin treatment
Protocol: Dissected tissues were briefly rinsed with PBS, fixed for 48 h at room temperature using formalin, and dehydrated and embedded in paraffin. Five-micron thick sections mounted on precoated microscope slides were dewaxed by xylene and progressively rehydrated before processing. Insulin was stained using chicken anti-insulin (1:200 dilution, Abcam) followed by goat anti-chicken Alexa™ 488 (1:1000 dilution, Invitrogen) antibodies; blood vessels were stained using rat anti-mouse CD31 (1:50 dilution, BD Pharmingen), followed by incubation of biotinylated goat anti-rat (5 μg/ml, Vector Labs) and amplification with HRP-streptavidin/Alexa™ 647-tyramide (Invitrogen); proliferation was assessed by using mouse anti-human Ki67 (1:50 dilution, Novocastra) together with M.O.M. biotinylated anti-mouse IgG (Vector Labs), and amplified using HRP-streptavidin/Alexa 647-tyramide. Nuclei were stained and slides were preserved by cover glass mounting using ProLong™ Gold Antifade Reagent with DAPI (Invitrogen). Slides were imaged using a BD Pathway 855 system (BD Biosciences). Insulin, CD31, Ki67 and DAPI stainings were imaged using a 20×/0.75NA UApo/340 Olympus objective, and overviews of pancreatic sections stained by hematoxylin/eosin were obtained by montage capture mode using a 4×/0.16NA UPlan SApo Olympus objective.
AutoQuant X2 (Media Cybernetics) was used for blind deconvolution of all in vivo confocal images before image analysis. Islet volume was analyzed based on the backscatter signal channel, using Matlab™ and the Image Processing Toolbox (Mathworks). The islet “equatorial volume”, i.e. the volume from the top of the islet down to the calculated equator, was used to represent the volume and calculate islet growth. We analyzed a minimum of 3 islet grafts per animal to determine islet growth, with a minimum of 3 mice per category. Individual vessel segments were identified at different imaging time points and their diameter measured using Volocity™ (Perkin Elmer). We established image analysis protocols in Volocity™ for automated analysis of histological sections. […]

[5] = daily i.p. leptin 1.5 μg/g, during treatment

Substance: leptin: recombinant human leptin (Amylin Pharmaceuticals), hormone encoded by the ob gene
- body weight after the end of the treatment period ([1]; after end of leptin treatment, mass similar to untreated ob/ob about one month later): rapidly increased
- body weight ([1]; daily i.p. leptin 1.5 μg/g between 3 and 4 months of age, during treatment): decrease
- blood glucose [1, 5]: decrease
- insulin concentrations (plasma) [1, 5]: decrease
- appetite ([1]; daily i.p. leptin, during treatment): visibly reduced
- glucose handling in intraperitoneal glucose tolerance test (glucose excursions, AUC) ([2]; ob/ob mice at end of treatment period, 2 mg glucose/g i.p., 16 h fasted): normalized; also recorded: glucose excursions similar to those obtained from age-matched control mice
- insulin sensitivity ([2]; ob/ob mice, end of leptin treatment): beneficial impact
- islet growth after the end of treatment ([3]; ob/ob mice, after end of leptin or sham treatment): no difference in islet growth
- islet growth (islet volume) of islet transplants ([3]; ob/ob mice, during leptin treatment versus sham treatment): reversal of islet growth; also recorded: abolished and partially reversed
- angiogenesis in the islet grafts ([3]; ob/ob mice, early stage after leptin treatment): could observe angiogenesis
- vessel diameter in islet grafts ([3]; ob/ob mice, leptin treatment, dextran-FITC imaging): rapid effect on blood vessel diameters; also recorded: decrease
- granulation of islet cells (reflective optical properties, backscatter) ([3]; transplanted islets in leptin-treated ob/ob mice): regranulation
- proliferation of beta cells (insulin and Ki67 staining) ([4]; engrafted islets (transplanted eye)): attenuated; also recorded: virtually abolished
- average beta cell size ([4]; following leptin treatment, transplanted or endogenous pancreatic islets, versus age-matched untreated control mice): no significant difference compared to age-matched untreated control mice
- proliferation of beta cells (insulin and Ki67 staining) ([4]; in situ pancreatic islets): attenuated; also recorded: virtually abolished
